# Assays:
# [1] = test system: ICR (CD-1) mice; assay: In vivo toxicity in mice (SC, IN, IP routes); design: Aspartate aminotransferase, AST / Alanine transaminase, ALT / Alkaline phosphatase, ALP / Creatinine / Urea / Total bilirubin: unit not given here; details: for Eosinophil / Erythrocytes, RBC / Granulocytes / Hematocrit, HCT / Hemoglobin Hgb / Lymphocytes / Mean corpuscular haemoglobin concentration, MCHC / Mean corpuscular haemoglobin, MCH / Mean corpuscular volume, MCV / Monocytes / White blood cells, WBC / platelet Counts, PLT / Alanine transaminase, ALT / Alkaline phosphatase, ALP / Aspartate aminotransferase, AST / Creatinine / Total bilirubin / Urea: 3 doses (1hr, 12hr, 24hr), RN7-IN9, RN7-IN6 10 mg/kg, day 7, mean±SD, 4 mice; for Alanine transaminase, ALT / Alkaline phosphatase, ALP / Aspartate aminotransferase, AST / Creatinine / Total bilirubin / Urea: serum
# Protocol: In this study, 4-week old male, pathogen free ICR (CD-1) mice were purchased from InVivos (Lim Chu Kang, Singapore) and used to assess the in vivo toxicity and antibacterial efficacy of the novel peptides, as these animals are by far the most commonly used model for the study of pneumococcal disease ([Chiavolini, Pozzi & Ricci, 2008]). The mice were kept in ventilated polycarbonate cages (12 h light/dark cycle, 20 ± 2 °C and 55% relative humidity). All mice were familiarized for seven days before any experimental procedure and were given unlimited pellets and water ad libitum. All animal experimentations were conducted according to the guidelines approved by Faculty of Medicine Institutional Animal Care and Use Committee (FOM IACUC), University of Malaya (ethics Reference no. : 2013-07-15/MMBTR/SDS).
# In order to evaluate the possible toxic effects correlated to peptides administered in mice, four hybrid peptides RN7-IN10, RN7-IN9, RN7-IN8 and RN7-IN6 were chosen for in vivo toxicity assessment, due to their promising in vitro antibacterial activity ([Jindal et al., 2015]). Mice were separated into four groups (each with four mice) and were injected with respective peptides at 1 h, 12 h, and 24 h (three-dose regimen) via IP, SC, and IN administration routes. The hybrid peptides were first administered at high doses (100 mg/kg for IP route, 100 mg/kg for SC routes and 20 mg/kg for IN route). Any abnormal behavior was recorded and survival of mice was noted as well. In case adverse effects such as high physical stress, severe lethargy, physical inactiveness, and/or death were detected, lower graded doses were given. All the administered mice were monitored for seven days or until death occurred. At day seven post administration, all animals were sacrificed and blood and organs were collected. Untreated mice were used as a control group.
# Mice used to evaluate the in vivo toxicity and antibacterial activity of the hybrid peptides using the subcutaneous (SC) and intranasal (IN) administration routes, were anesthetized using a combination of a standard dose of xylazine (ilium xylazil-20, 10 mg/kg) and ketamine (Narketan®-10, 100 mg/kg) through intraperitoneal (IP) injection. After seven days of treatment, the in vivo toxicity and antibacterial efficacy experiments were ended and the surviving mice were anesthetized. Blood samples for Hematological and biochemical analysis were collected via cardiac puncture using a 25G syringe (BD bioscience, San Jose, CA, USA). Whole blood for heamatological analysis was collected in 500 µl dipotassium EDTA microtainer tubes (BD Bioscience, USA). About 500 µl of blood collected an eppedorff tube and centrifuged at 8000 rpm for 5 min and then the serum was transferred into a new 1.5 ml tube for biochemistry analysis. The mice were then euthanized by cervical dislocation, dissected and the following organs were collected for histopathology evaluation: lung, kidney, brain, liver and spleen.
# For whole blood analysis, the parameters were number of red cells (RBC), number of white cells (WBC), lymphocytes, monocytes, eosinophil, granulocytes, haemoglobin (Hgb), mean corpuscular volume (MCV), hematocrit (HCT), platelet Counts (PLT), Mean corpuscular haemoglobin (MCH) and corpuscular haemoglobin concentration (MCHC). For biochemistry analysis, the parameters were alanine transaminase (ALT), creatinine, alkaline phosphatase (ALP), aspartate aminotransferase (AST), total bilirubin and urea.
# The following organs were collected from all the dissected mice: lung, kidney, brain, spleen, and liver. All tissues were fixed in 10% (v/v) buffered formalin and processed for paraffin embedding. Hematoxylin–eosin (HE) was used to stain the histological sections at the histopathology laboratory, Veterinary Laboratory Service Unit, University Putra Malaysia (UPM).
# [2] = test system: Streptococcus pneumoniae; details: 30 pneumococcal clinical isolates; earlier study; ref Jindal et al., 2015; cited from earlier work
# Source text: Table 1 Sequences and physicochemical properties of the template and hybrid AMPs. | column: MIC^a || One of the advantageous alternatives to today’s antibiotics is antimicrobial peptides (AMPs) ([Deslouches et al., 2013]; [Sánchez-Vásquez et al., 2013]). AMPs are synthesized by almost all living beings as the first line of defense in their immune system against microbial infection. Many aspects favor AMPs over traditional antibiotics: a broad range of antimicrobial activity against pathogenic micro-organisms (including viruses, parasites, bacteria, and fungi), microbial pathogens are less efficient in developing resistance against AMPs, as killing take place in a short contact time and AMPs c ...
# [3] = IN, head doses: RN7-IN10, RN7-IN8 20 mg/kg
# [4] = SC, head doses: RN7-IN10, RN7-IN8 20 mg/kg
substance,measurement,setting,value
"FLGGLIKWPWWPWRR-NH2 [RN7-IN8, hybrid peptide of ranalexin (residues 1-7) and indolicidin (residues 6-13)]",Eosinophil,[1]; [3],4.3±3.6%
same,"Erythrocytes, RBC",[1]; [3],8.95±0.53 10^6/mm^3
same,Granulocytes,[1]; [3],52.9±9.54%
same,"Hematocrit, HCT",[1]; [3],44.8±2.9%
same,Hemoglobin Hgb,[1]; [3],14.42 ± 0.76 g/dL
same,Lymphocytes,[1]; [3],45.6±14.31%
same,"Mean corpuscular haemoglobin concentration, MCHC",[1]; [3],32.22 ± 0.4 g/dL
same,"Mean corpuscular haemoglobin, MCH",[1]; [3],16.12 ± 0.33 pg
same,"Mean corpuscular volume, MCV",[1]; [3],50.25±1.25 µm^3
same,Monocytes,[1]; [3],3.22±0.68%
same,"White blood cells, WBC",[1]; [3],3.95±0.54 10^3/mm^3
same,"platelet Counts, PLT",[1]; [3],612±130.37 10^3/mm^3
same,Eosinophil,"[1]; IP, RN7-IN10, RN7-IN8 20 mg/kg",2.34±0.63%
same,"Erythrocytes, RBC","[1]; IP, RN7-IN10, RN7-IN8 20 mg/kg",8.14±0.34 10^6/mm^3
same,Granulocytes,"[1]; IP, RN7-IN10, RN7-IN8 20 mg/kg",53.38±12.35%
same,"Hematocrit, HCT","[1]; IP, RN7-IN10, RN7-IN8 20 mg/kg",42.73±1.66%
same,Hemoglobin Hgb,"[1]; IP, RN7-IN10, RN7-IN8 20 mg/kg",14.55 ± 0.17 g/dL
same,Lymphocytes,"[1]; IP, RN7-IN10, RN7-IN8 20 mg/kg",53.7±8.22%
same,"Mean corpuscular haemoglobin concentration, MCHC","[1]; IP, RN7-IN10, RN7-IN8 20 mg/kg",34.17 ± 1.13 g/dL
same,"Mean corpuscular haemoglobin, MCH","[1]; IP, RN7-IN10, RN7-IN8 20 mg/kg",17.92 ± 0.56 pg
same,"Mean corpuscular volume, MCV","[1]; IP, RN7-IN10, RN7-IN8 20 mg/kg",52.75±0.95 µm^3
same,Monocytes,"[1]; IP, RN7-IN10, RN7-IN8 20 mg/kg",2.77±0.88%
same,"White blood cells, WBC","[1]; IP, RN7-IN10, RN7-IN8 20 mg/kg",4.18±0.36 10^3/mm^3
same,"platelet Counts, PLT","[1]; IP, RN7-IN10, RN7-IN8 20 mg/kg",472.5±100.52 10^3/mm^3
same,maximum IP dose at which no signs of stress or abnormal behavior were evident (non-toxic dose),"[1]; IP, doses at 1 h, 12 h, 24 h, no death up to seven days",20 mg/kg
same,Eosinophil,[1]; [4],2.42±0.61%
same,"Erythrocytes, RBC",[1]; [4],9.17±0.83 10^6/mm^3
same,Granulocytes,[1]; [4],58.62±9.82%
same,"Hematocrit, HCT",[1]; [4],46.15±3.69%
same,Hemoglobin Hgb,[1]; [4],15.82 ± 1.11 g/dL
same,Lymphocytes,[1]; [4],43.85±6.28%
same,"Mean corpuscular haemoglobin concentration, MCHC",[1]; [4],34.38 ± 0.52 g/dL
same,"Mean corpuscular haemoglobin, MCH",[1]; [4],17.32 ± 0.49 pg
same,"Mean corpuscular volume, MCV",[1]; [4],50.25±0.95 µm^3
same,Monocytes,[1]; [4],1.92±0.15%
same,"White blood cells, WBC",[1]; [4],3.47±0.48 10^3/mm^3
same,"platelet Counts, PLT",[1]; [4],445.75±47.21 10^3/mm^3
same,"Alanine transaminase, ALT",[1]; [3],44.5±18.9
same,"Alkaline phosphatase, ALP",[1]; [3],128.5±21.7
same,"Aspartate aminotransferase, AST",[1]; [3],176.3±31.91
same,Creatinine,[1]; [3],40.56±1.74
same,Total bilirubin,[1]; [3],2.21±0.18
same,Urea,[1]; [3],8.89±1.30
same,"Alanine transaminase, ALT","[1]; IP, RN7-IN10, RN7-IN8 20 mg/kg",62.1±23.84
same,"Alkaline phosphatase, ALP","[1]; IP, RN7-IN10, RN7-IN8 20 mg/kg",115.4±34.9
same,"Aspartate aminotransferase, AST","[1]; IP, RN7-IN10, RN7-IN8 20 mg/kg",148.9±21.51
same,Creatinine,"[1]; IP, RN7-IN10, RN7-IN8 20 mg/kg",39.2±3.81
same,Total bilirubin,"[1]; IP, RN7-IN10, RN7-IN8 20 mg/kg",1.98±0.11
same,Urea,"[1]; IP, RN7-IN10, RN7-IN8 20 mg/kg",10.34±2.36
same,"Alanine transaminase, ALT",[1]; [4],50±5.49
same,"Alkaline phosphatase, ALP",[1]; [4],134±8.24
same,"Aspartate aminotransferase, AST",[1]; [4],170.75±14.52
same,Creatinine,[1]; [4],43.4±0.8
same,Total bilirubin,[1]; [4],1.84±0.12
same,Urea,[1]; [4],9.61±3.02
same,"MIC, minimum inhibitory concentration",[2],7.81 to 15.62 µg/mL

# — PMC5632533, “Mechanisms of action and in vivo antibacterial efficacy assessment of five novel hybrid peptides derived from Indolicidin and Ranalexin against Streptococcus pneumoniae” (PeerJ, 2017)
